Like-named read-outs stand apart in the source and are kept apart here.
Assays:
[1] = target: T1, K-2 to K-3 domains of rat plasminogen (Rattus norvegicus, UniProt Q01177); assay: ITC binding to rat plasminogen K-2 to K-3
T1 construct: made in house
T1 sequence (Q01177 184-352 limits assumed): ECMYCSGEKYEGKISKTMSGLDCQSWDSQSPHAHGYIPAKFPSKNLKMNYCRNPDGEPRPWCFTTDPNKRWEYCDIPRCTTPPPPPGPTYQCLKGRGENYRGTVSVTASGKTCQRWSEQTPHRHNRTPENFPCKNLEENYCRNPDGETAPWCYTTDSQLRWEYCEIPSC
Method: (§1) The nucleotide sequence encoding the human LPA gene (NP_005568.2) was inserted into a mammalian expression vector containing a cytomegalovirus promoter. Protein expression was performed by transient transfection of human embryonic kidney 293 (HEK293) cells cultured in serum-free medium. The culture medium was collected five days after transfection and human apo(a) protein was purified using L-lysine affinity chromatography. Nucleotide sequences encoding various KIV domains of human apo(a) and human and rat plasminogen were inserted into a pET21a Escherichia coli expression vector. […] All protein concentrations were determined by A280. […] The microsyringe was loaded with a solution of the respective compounds, with the concentration measured by quantitative nuclear magnetic resonance, and was inserted into the calorimetric cell prefilled with the respective recombinant proteins of known concentration in ITC buffer. […] Thermodynamic parameters were calculated using the basic equation of thermodynamics (ΔG = ΔH - TΔS = -RTlnKd), where ΔG, ΔH and ΔS are the changes in free energy, enthalpy and entropy of binding, respectively; Kd is the equilibrium dissociation constant; T is the absolute temperature ([…]); and R is the gas constant (1.987 cal mol^-1 K^-^1). […]

[2] = target: T2, K-2 to K-3 domains of human plasminogen (Homo sapiens, UniProt P00747); assay: ITC binding to human plasminogen K-2 to K-3
T2 construct: that for the K-2 to K-3 domains of human plasminogen; made in house
T2 sequence (P00747 184-352 limits assumed): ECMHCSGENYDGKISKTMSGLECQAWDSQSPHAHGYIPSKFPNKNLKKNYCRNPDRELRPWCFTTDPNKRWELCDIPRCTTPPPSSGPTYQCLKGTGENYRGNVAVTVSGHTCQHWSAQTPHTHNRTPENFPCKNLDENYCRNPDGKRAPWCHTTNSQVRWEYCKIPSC
Method: as §1

[3] = test system: Plg mRNA; assay: Rat hepatic Plg mRNA after oral dosing; format: in vivo; settings: rats, daily oral dosing
Method: Male Sprague Dawley rats (Charles River, average body weight 310 g, aged eight to nine weeks old) were housed in cages with a standard light cycle (12-h light, 12-h dark), at room temperature (22 ± 4 °C), with a relative humidity of 30–70%. Rats were identified by numbers on the cage cards. After arrival, rats were fed on a normal diet (Harlan Teklad diet 2014) and randomized to treatment groups (n = 5 per group) by baseline plasma plasminogen concentration and activity using a BRAT. LSN3441732 and LY3473329 were administered QD orally at three dose levels (3.7, 12.3 and 37 mg kg^−1; 3.2, 10.5 and 31.6 mg kg^−1 per dose, respectively) or vehicle (10 ml kg^−1, 1% HEC, 0.25% Tween-80, Antifoam) for four days. Terminal blood was drawn under general anaesthesia 24 h after the day-4 oral dose. Plasma samples were collected via the abdominal aorta into a premeasured anticoagulant BD Vacutainer used for blood collection (2.7 ml, buffered sodium citrate). […]
RNA was isolated from the liver using the PureLink RNA Mini Kit (Invitrogen) and quantified using the NanoDrop spectrophotometer (Thermo Fisher Scientific). […] Quantitative PCR was conducted using TaqMan reagents and primers (Plg Rn00585167_m1, Gapdh Rn99999916_s1). Relative quantitation was calculated using the comparative Ct method. Statistical significance was evaluated using JMP v.16.1.0 software (SAS).

[4] = Pharmacokinetics in monkey plasma after oral dosing; format: in vivo; settings: for AUC(0-t): day 15, read-out: AUC(0-96 hr)
Method: Plasma samples were collected from all monkeys before dosing and at four-hour time points only on days 1, 3, 5, 9 and 14. A full PK profile was obtained in the first three monkeys of each dose group on day 15, collecting samples before dosing and 1, 2, 4, 8, 12, 24, 48 and 96 h after dosing. Concentrations of compounds were evaluated in plasma samples using a non-GLP LC–MS/MS assay. The non-compartmental plasma PK parameters were calculated using Watson (v.7.5).

| SMILES | Kd [1] [nM] | fold higher affinity for rat than human plasminogen K-2 to K-3 [1] | Kd [2] [nM] | levels of hepatic Plg mRNA [3] | Tmax ([4]; Chinese cynomolgus, oral 1 mg/kg, day 15) [h] | Cmax ([4]; Chinese cynomolgus, oral 10 mg/kg, day 15) [µM] | AUC(0-t) ([4]; Chinese cynomolgus, oral 10 mg/kg) [µM·h] | Tmax ([4]; Chinese cynomolgus, oral 100 mg/kg, day 15) [h] | AUC(0-t) ([4]; cynomolgus, oral 100 mg/kg) [µM·h] |
| --- | --- | --- | --- | --- | --- | --- | --- | --- | --- |
| Cl.Cl.O=C(Nc1cccc(C[C@H](C(=O)O)[C@H]2CCNC2)c1)Nc1cccc(C[C@H](C(=O)O)[C@H]2CCNC2)c1 [LSN3441732] | < 10 | more than 100 fold | 1600 | unchanged |  |  |  |  |  |
| O=C(O)[C@@H](Cc1cccc(CN(Cc2cccc(C[C@H](C(=O)O)[C@H]3CCNC3)c2)Cc2cccc(C[C@H](C(=O)O)[C@H]3CCNC3)c2)c1)[C@H]1CCNC1 [LY3473329] |  |  |  |  | 7 ± 5.7 | 3.47 | 207 | 1 ± 1 | 294 |

Source: publication PMC11111404, “Discovery of potent small-molecule inhibitors of lipoprotein(a) formation” (Nature, 2024)
